The values below are quoted from earlier work in patent US20070065511A1, “Controlled delivery creatine formulations and method of using the same” (priority 2004, published 2007).

The subject of series [1] is satellite cell (SC).
For series [2] the following is noted: ingestion of 20 to 30 g per day for several days.

SMILES strings stand for the structures. Like-named read-outs stand apart in the source and are kept apart here.

On to `CN(CC(=O)O)C(=N)N` [CRE, creatine], for which the “SC/fibre, time effect from baseline” value in series [1] (week 4 of supplementation and resistance training) was 111%; in series [1] (week 8 of supplementation and resistance training) it was 93%. Further, the “SC/fibre compared to baseline” value in series [1] (week 16) is given as “no difference”.

For the molecule `CN(CC(=O)O)C(=N)N.O` [creatine monohydrate], the “increase in human skeletal muscle total creatine content” value in series [2] is on record as “greater than 20%”.
